{
  "source": "the supplement of paper PMC10307832",
  "test_in_all_cases": "relative viability (nuclei count vs DMSO), 5 days (fraction); higher = more cells survive",
  "key": {"[1]": {"compound": "CN1CCN(CC1)C2=CC(=C(C=C2)NC3=NC(=C(S3)C(=O)C4=C(C=CC=C4Cl)Cl)N)OC [XMD14-99] + Nc1nc2[nH]cc(CCc3ccc(C(=O)N[C@@H](CCC(=O)O)C(=O)O)cc3)c2c(=O)[nH]1 [Pemetrexed] (partner 0.2 µM)", "in_short": "(§1)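 For relative viability, nuclei counts in treated wells were divided by those in vehicle wells. Lung cancer cell lines had been pin-tool dosed in 1536-well plates the day after seeding and cultured for 5 days, then fixed and stained in one step (final 0.05% Triton X-100, 1% formaldehyde, 1 ug/ml Hoechst) and imaged at 4×. Doses were one drug alone or a fixed anchor-drug dose plus five library-drug doses (not always all listed) in √10 steps, and values are duplicate-plate medians.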"}, "[2]": {"compound": "CN1CCN(CC1)C2=CC(=C(C=C2)NC3=NC(=C(S3)C(=O)C4=C(C=CC=C4Cl)Cl)N)OC [XMD14-99] + COc1cccc2cc(-c3nc([C@H]4CC[C@H](C(=O)O)CC4)n4ncnc(N)c34)[nH]c12 [OSI-027] (partner 0.5 µM)", "in_short": "as §1"}, "[3]": {"compound": "CN1CCN(CC1)C2=CC(=C(C=C2)NC3=NC(=C(S3)C(=O)C4=C(C=CC=C4Cl)Cl)N)OC [XMD14-99] + Nc1ncn([C@H]2C[C@H](O)[C@@H](CO)O2)c(=O)n1 [Decitabine] (partner 2 µM)", "in_short": "as §1"}, "[4]": {"compound": "CN1CCN(CC1)C2=CC(=C(C=C2)NC3=NC(=C(S3)C(=O)C4=C(C=CC=C4Cl)Cl)N)OC [XMD14-99] + O=C(CCCCCCC(=O)Nc1ccccc1)NO [Vorinostat] (partner 1 µM)", "in_short": "as §1"}, "[5]": {"compound": "CN1CCN(CC1)C2=CC(=C(C=C2)NC3=NC(=C(S3)C(=O)C4=C(C=CC=C4Cl)Cl)N)OC [XMD14-99] + CS(=O)(=O)CCNCc1ccc(-c2ccc3ncnc(Nc4ccc(OCc5cccc(F)c5)c(Cl)c4)c3c2)o1 [Lapatinib] (partner 2 µM)", "in_short": "as §1"}},
  "data": [
    {"cell line": "UMC-11", "values": [
      {"measurement": "relative viability", "setting": "[1]; first compound 0.08 µM", "value": 0.752},
      {"measurement": "relative viability", "setting": "[1]; first compound 0.8 µM", "value": 0.769},
      {"measurement": "relative viability", "setting": "[1]; first compound 2.53 µM", "value": 0.688},
      {"measurement": "relative viability", "setting": "[1]; first compound 8 µM", "value": 0.69},
      {"measurement": "relative viability", "setting": "[2]; first compound 0.08 µM", "value": 0.495},
      {"measurement": "relative viability", "setting": "[2]; first compound 0.8 µM", "value": 0.46},
      {"measurement": "relative viability", "setting": "[2]; first compound 2.53 µM", "value": 0.421},
      {"measurement": "relative viability", "setting": "[2]; first compound 8 µM", "value": 0.359},
      {"measurement": "relative viability", "setting": "[3]; first compound 0.08 µM", "value": 0.573},
      {"measurement": "relative viability", "setting": "[3]; first compound 0.8 µM", "value": 0.667},
      {"measurement": "relative viability", "setting": "[3]; first compound 2.53 µM", "value": 0.626},
      {"measurement": "relative viability", "setting": "[3]; first compound 8 µM", "value": 0.589},
      {"measurement": "relative viability", "setting": "[4]; first compound 0.08 µM", "value": 0.422},
      {"measurement": "relative viability", "setting": "[4]; first compound 0.8 µM", "value": 0.352},
      {"measurement": "relative viability", "setting": "[4]; first compound 2.53 µM", "value": 0.416},
      {"measurement": "relative viability", "setting": "[4]; first compound 8 µM", "value": 0.346},
      {"measurement": "relative viability", "setting": "[5]; first compound 0.08 µM", "value": 1.13},
      {"measurement": "relative viability", "setting": "[5]; first compound 0.8 µM", "value": 0.969},
      {"measurement": "relative viability", "setting": "[5]; first compound 2.53 µM", "value": 0.974},
      {"measurement": "relative viability", "setting": "[5]; first compound 8 µM", "value": 0.744}
    ]}
  ]
}
